# From PubChem BioAssay (NCI)
#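 In this assay, cells in 96-well plates receive the compound at five concentrations for 48 hours. Endpoints are linearly interpolated between the surrounding concentrations. GI50 marks 50% less growth. TGI denotes the concentration required for complete inhibition of growth.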
# Key:
# Experiment in all cases: inhibition of tumour cell growth, NCI panel, 48 h
# [1] = system: COLO 205 colon
# [2] = system: SK-OV-3 ovarian
# [3] = system: HOP-62 NSCLC
# [4] = system: NCI-H460 lung
# [5] = system: HS 578T breast
# [6] = system: NCI/ADR-RES ovarian
# [7] = system: HCT-15 colon
# [8] = system: SF-268 CNS
# [9] = system: PC-3 prostate
# [10] = system: SNB-75 CNS
# [11] = system: EKVX NSCLC
# [12] = system: SNB-19 CNS
# [13] = system: CAKI-1 renal
# [14] = system: A549 NSCLC
# [15] = system: SR leukemia
# [16] = system: LOX IMVI melanoma
# [17] = system: DU-145 prostate
# [18] = system: SF-295 CNS
# [19] = system: U251 CNS
# [20] = system: IGROV1 ovarian
# [21] = system: MDA-MB-435
# [22] = system: RXF 393 renal
# [23] = system: NCI-H226 lung
# [24] = system: NCI-H522 lung
# [25] = system: ACHN renal
# [26] = system: SN12C renal
# [27] = system: A498 renal
# [28] = system: SK-MEL-5 melanoma
# [29] = system: K-562 leukemia
structure (smiles),measurement,setting,value
O=C(CCCCCCSc1nc(-c2ccccc2)cc(-c2ccc(Cl)cc2)n1)NO,GI50,[1],2.38 µM
same,TGI,[1],5.76 µM
same,GI50,[2],2.36 µM
same,TGI,[2],6.04 µM
same,GI50,[3],1.96 µM
same,TGI,[3],5.24 µM
same,GI50,[4],1.22 µM
same,TGI,[4],10.2 µM
same,GI50,[5],2.76 µM
same,TGI,[5],20.1 µM
same,GI50,[6],0.596 µM
same,TGI,[6],8.84 µM
same,GI50,[7],2.27 µM
same,TGI,[7],14 µM
same,GI50,[8],2.44 µM
same,TGI,[8],6.75 µM
same,GI50,[9],1.98 µM
same,TGI,[9],10.5 µM
same,GI50,[10],1.95 µM
same,TGI,[10],13.7 µM
same,GI50,[11],3.7 µM
same,TGI,[11],14.3 µM
same,GI50,[12],2.63 µM
same,TGI,[12],11.2 µM
same,GI50,[13],1.51 µM
same,TGI,[13],6.89 µM
same,GI50,[14],2.16 µM
same,TGI,[14],6.23 µM
same,GI50,[15],0.416 µM
same,TGI,[15],4.67 µM
same,GI50,[16],2.06 µM
same,TGI,[16],4.66 µM
same,GI50,[17],2.25 µM
same,TGI,[17],10.6 µM
same,GI50,[18],2.45 µM
same,TGI,[18],6.7 µM
same,GI50,[19],1.59 µM
same,TGI,[19],4.08 µM
same,GI50,[20],1.24 µM
same,TGI,[20],6.5 µM
same,GI50,[21],2.24 µM
same,TGI,[21],10.9 µM
same,GI50,[22],1.57 µM
same,TGI,[22],3.89 µM
same,GI50,[23],2.59 µM
same,TGI,[23],11.8 µM
same,GI50,[24],1.13 µM
same,TGI,[24],8.05 µM
same,GI50,[25],1.58 µM
same,TGI,[25],3.64 µM
same,GI50,[26],2.14 µM
same,TGI,[26],6.35 µM
same,GI50,[27],1.4 µM
same,TGI,[27],4.09 µM
same,GI50,[28],1.69 µM
same,TGI,[28],3.93 µM
same,GI50,[29],1.66 µM
same,TGI,[29],10.8 µM
